{
  "source": "patent US20120196899A1",
  "about": "“METHODS AND PRODUCTS FOR TREATING INFLAMMATION” (Rock Creek Pharmaceuticals, Inc., priority 2010, published 2012)",
  "key": {"nAChR α7 [1]": {"molecular_target": "T1, nAChR α7 (Homo sapiens, UniProt P36544)", "T1 construct": "host or cells: CHO cells", "T1 sequence (P36544 23-502)": "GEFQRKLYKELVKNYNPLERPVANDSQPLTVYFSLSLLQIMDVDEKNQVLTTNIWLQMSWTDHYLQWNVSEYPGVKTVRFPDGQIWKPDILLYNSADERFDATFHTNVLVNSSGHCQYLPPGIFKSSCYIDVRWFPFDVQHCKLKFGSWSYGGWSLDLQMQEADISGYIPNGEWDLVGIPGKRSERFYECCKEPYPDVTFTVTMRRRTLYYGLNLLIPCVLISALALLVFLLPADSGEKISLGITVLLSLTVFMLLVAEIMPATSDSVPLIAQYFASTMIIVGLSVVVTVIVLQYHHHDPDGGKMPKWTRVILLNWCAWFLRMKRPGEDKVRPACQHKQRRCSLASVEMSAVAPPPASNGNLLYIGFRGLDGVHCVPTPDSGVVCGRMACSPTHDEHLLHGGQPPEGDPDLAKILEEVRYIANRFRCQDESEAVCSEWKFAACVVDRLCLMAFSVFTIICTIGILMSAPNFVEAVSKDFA", "test": "cell-based", "settings": "with 300 μM Ach + 10 μM PNU-120596, 10 μM MLA = full inhibition, read-out: Normalized % Inhibition"}, "nAChR α7 [2]": {"molecular_target": "T1, nAChR α7", "test": "nAChR α7 positive allosteric modulator assay (FLIPR)", "format": "cell-based", "settings": "with 30 μM Ach (= 0%), 30 μM Ach + 10 μM PNU-120596 = 100%", "method": "The following three (3) channels were evaluated: • 1. nAChR α3/β4 (encoded by the human CHRNA3 and CHRNB4 gene and stably expressed in CHO cells); • 2. nAChR α4/β2 (CHRNA4 and CHRNB2 gene and transiently expressed in HEK293 cells); and • 3. nAChR α7 (encoded by the human nicotinic α7 gene coexpressed in CHO cells with the chaperone RIC-3 encoded by the human RIC3 gene).\nThe ability of each test article to act as an agonist, a positive allosteric modulator or antagonist of three nAChR receptor channels was evaluated in the presence of 0.1 atropine. Both test articles were evaluated for responses on each nAChR channel at eight (8) concentrations: 0.3, 1, 3, 10, 30, 100, 300, and 1000 μM (n=4 for each concentration).\nHEK293 or CHO cells were transiently or stably transfected with the appropriate human ion channel cDNAs. Stable transfectants were selected by coexpression with the antibiotic-resistance gene(s) incorporated into the expression plasmid(s). Selection pressure was maintained by including selection antibiotics in the culture medium. HEK293 cells were cultured in Dulbecco's Modified Eagle Medium/Nutrient Mixture F-12 (D-MEM/F-12) supplemented with 10% fetal bovine serum, 100 U/mL penicillin G sodium, 100 g/mL streptomycin sulfate and appropriate selection antibiotics. CHO cells were cultured in Ham's F-12 supplemented with 10% fetal bovine serum, 100 U/mL penicillin G sodium, 100 g/mL streptomycin sulfate and appropriate selection antibiotics.\nFor FLIPR TETRA™ assay, cells were plated in 384-well black wall, flat clear bottom microtiter plates (Type: BD Biocoat Poly-D-Lysine Multiwell Cell Culture Plate) at 20,000 to 30,000 cells per well (384-well plate). Cells were incubated at 37° C. overnight or until the cells reached a sufficient density in the wells (near confluent monolayer) to use in fluorescence assays. For α4β2 assay, cells were incubated at 27° C. for at least 7 hours before use.\nExperiments were performed with either the FLIPR calcium sensitive dye kit (Fluo-8, ABDbioquest, for nAChR α3/β4 and nAChR α7) or FLIPR membrane potential kit (Molecular Devices, for nAChR α4/β2) according to the manufacturer's instructions. Briefly, cells were incubated with 201 dye for 30 min at 37° C. After dye loading period, for the agonist assay, 5 μl of the test, vehicle, or control articles at concentration of 5 times of final concentration were applied to the cells without stimulation. For the positive allosteric modulation (PAM) and antagonist assay, after test article application, the cells were stimulated with either low dose (for PAM) or high dose (for antagonist) of Ach.\nThe ability of each test article to act as a positive allosteric modulator of nicotinic α7 was carried out in the presence of the positive control agonist (30 μM Ach) alone. The signal elicited in the presence of the positive control agonist and allosteric modulator PNU-120596 (30 μM Ach+10 μM PNU-120596) was set to 100% and the signal from the agonist control (30 μM Ach) was set to 0%. Values were considered significant and in bold font if the test article mean was three or more standard deviations above the agonist control mean."}, "[3]": {"system": "Experimental Autoimmune Thyroiditis", "test": "Experimental Autoimmune Thyroiditis (Example 16A): lymphoid typing by flow cytometry", "format": "in vivo, mice", "settings": "p=0.0143", "procedure": "(§1) Thyroiditis was induced by injection of thyroglobulin emulsified in complete Freund's adjuvant (CFA). On days 0 and 7, female mice received subcutaneous injection of 100 μg thyroglobulin (2 injections of 50 μg each). Control mice drank water. […] Mice were sacrificed on day 21.\nLymphoid typing. Cervical lymph nodes were removed for lymphoid typing by flow cytometry. Spleen and peritoneal macrophages were removed for ex vivo stimulation."}, "[4]": {"system": "Experimental Autoimmune Thyroiditis", "test": "Experimental Autoimmune Thyroiditis (Example 16A): thyroid histopathology", "format": "in vivo, mice", "settings": "0.05 mg/ml in drinking water, day 21, p=0.05", "procedure": "as §1\nThyroid histopathology. Thyroid glands were removed. One lobe was fixed in formalin for histopathology. One lobe was frozen for immunohistochemistry. The extent of lymphocytic infiltration and destruction of the thyroid gland was assessed digitally. Initially, the entire thyroid lobe was examined. […] The final score was expressed as the percent of the thyroid area infiltrated by lymphocytes and damaged. The results are shown graphically in FIG. 42. […] Photomicrographs of hematoxylin- and eosin-stained thyroids from control and anatabine-treated mice are shown in FIG. 43A (control) and FIG. 43B (anatabine-treated)."}, "[5]": {"system": "Experimental Autoimmune Thyroiditis", "test": "Experimental Autoimmune Thyroiditis (Example 16A): serum antibodies to PPD and thyroglobulin", "format": "in vivo, mice", "procedure": "as §1\nImmunochemistry. Serum from control and anatabine-treated mice was examined to determine levels of antibodies to a foreign antigen (PPD).\nLevels of antibodies to thyroglobulin were examined on days 7, 14, and 21 after immunization."}, "[6]": {"system": "BACE-1 protein expression", "test": "BACE-1 protein expression in SHSY cells (Western blot)", "format": "cell-based, human", "settings": "24 hours, corrected for actin"}, "HEK293": {"system": "HEK293", "test": "LDH cytotoxicity assay on supernatants of the treated cells", "format": "cell-based, Human", "procedure": "Cytotoxicity assays using the supernatants from the treated cells were conducted using an LDH Cytotoxicity Detection Kit (Roche) according to the manufacturer's instructions."}, "Aβ production": {"system": "Aβ production", "test": "Aβ production in 7W CHO cells", "format": "cell-based"}, "BACE-1 mRNA": {"system": "BACE-1 mRNA", "test": "BACE-1 mRNA levels in SHSY cells by RTPCR", "format": "cell-based, human", "settings": "30 minutes, TNF-α induced", "excerpt": "TNF-α was used to increase BACE expression."}, "[7]": {"settings": "nicotine 1.25 mg/kg (1 female) and 1.0 mg/kg (3 females) single i.v.", "procedure": "One control group of animals received a single i.v. dose of the vehicle at 5 mL/kg. Ten rats (5 males and 5 females) were dosed per group. […] One female received a single i.v. dose of 1.25 mg/kg, and 3 females received a single i.v. dose of 1.0 mg/kg.\nFollowing the tolerability study, an additional group was added to the study. […] All animals were observed daily. Body weight and food consumption was measured daily, with any abnormal observations noted. Average daily body weights and food consumption was tabulated with standard deviation calculated."}},
  "data": [
    {"smiles": "C1=CCC(c2cccnc2)NC1", "note": "(racemic) [Anatabine (racemate)]", "values": [
      {"measurement": "inhibition at 0.3 µM", "setting": "nAChR α7 [1]; test conc 0.3 μM", "result": 22.4, "unit": "%"},
      {"measurement": "inhibition at 1 µM", "setting": "nAChR α7 [1]; test conc 1 μM", "result": 22.2, "unit": "%"},
      {"measurement": "inhibition at 3 µM", "setting": "nAChR α7 [1]; test conc 3 μM", "result": 45.2, "unit": "%"},
      {"measurement": "inhibition at 10 µM", "setting": "nAChR α7 [1]; test conc 10 μM", "result": 33.4, "unit": "%"},
      {"measurement": "inhibition at 30 µM", "setting": "nAChR α7 [1]; test conc 30 μM", "result": 22.9, "unit": "%"},
      {"measurement": "inhibition at 100 µM", "setting": "nAChR α7 [1]; test conc 100 μM", "result": 22, "unit": "%"},
      {"measurement": "inhibition at 300 µM", "setting": "nAChR α7 [1]; test conc 300 μM", "result": 7.51, "unit": "%"},
      {"measurement": "inhibition at 1000 µM", "setting": "nAChR α7 [1]; test conc 1000 μM", "result": 10.8, "unit": "%"},
      {"measurement": "Normalized % Potentiation", "setting": "nAChR α7 [2]; test conc 0.3 μM", "result": "−0.94", "unit": "%"},
      {"measurement": "Normalized % Potentiation", "setting": "nAChR α7 [2]; test conc 1 μM", "result": "−1.05", "unit": "%"},
      {"measurement": "Normalized % Potentiation", "setting": "nAChR α7 [2]; test conc 3 μM", "result": "−0.82", "unit": "%"},
      {"measurement": "Normalized % Potentiation", "setting": "nAChR α7 [2]; test conc 10 μM", "result": "−0.51", "unit": "%"},
      {"measurement": "Normalized % Potentiation", "setting": "nAChR α7 [2]; test conc 30 μM", "result": "−0.57", "unit": "%"},
      {"measurement": "Normalized % Potentiation", "setting": "nAChR α7 [2]; test conc 100 μM", "result": "−0.64", "unit": "%"},
      {"measurement": "Normalized % Potentiation", "setting": "nAChR α7 [2]; test conc 300 μM", "result": "−0.74", "unit": "%"},
      {"measurement": "Normalized % Potentiation", "setting": "nAChR α7 [2]; test conc 1000 μM", "result": "−1.05", "unit": "%"}
    ]},
    {"smiles": "C1=CCC(c2cccnc2)NC1", "note": "(racemic) [Anatabine, 1,2,3,6-tetrahydro-[2,3′]bipyridinyl]", "values": [
      {"measurement": "activated T cells", "setting": "[3]; cervical lymph nodes", "result": "fewer activated T cells"},
      {"measurement": "regulatory T cells", "setting": "[3]; cervical lymph nodes", "result": "more regulatory T cells"},
      {"measurement": "ability to present antigens", "setting": "[3]", "result": "a lower ability to present antigens"},
      {"measurement": "thyroid pathology (percent of thyroid area infiltrated and damaged)", "setting": "[4]", "result": "developed less severe thyroiditis than control mice"},
      {"measurement": "levels of antibodies to PPD", "setting": "[5]; 0.05 mg/ml in drinking water, versus control", "result": "no significant difference"},
      {"measurement": "levels of antibodies to thyroglobulin", "setting": "[5]; day 7", "result": "no significant difference"},
      {"measurement": "levels of antibodies to thyroglobulin", "setting": "[5]; day 14, p=0.086", "result": "tended to have lower thyroglobulin antibodies"},
      {"measurement": "levels of antibodies to thyroglobulin", "setting": "[5]; day 21", "result": "no significant difference"},
      {"measurement": "BACE-1 protein expression", "setting": "[6]", "result": "reduced BACE expression"},
      {"measurement": "cytotoxicity (LDH release)", "setting": "HEK293", "result": "without cellular toxicity"},
      {"measurement": "Aβ production (Aβ1-42, Aβ1-40)", "setting": "Aβ production", "result": "concentration-dependent reduction of Aβ production"},
      {"measurement": "BACE-1 mRNA expression", "setting": "BACE-1 mRNA", "result": "reduced this signal in a concentration-dependent manner"}
    ]},
    {"smiles": "CN1CCCC1c1cccnc1.O=C(O)C(O)C(O)C(=O)O", "note": "(single isomer, unassigned; (-)) [Nicotine, (−) Nicotine hydrogen tartrate, reference compound]", "values": [
      {"measurement": "clinical signs in tolerability study", "setting": "[7]", "result": "experienced severe tremors upon completion of dosing, but all returned to normal by 20 minutes post dose"}
    ]}
  ]
}
